Patent US20080039527A1, “Calixarenes as Inhibitors of Protein Kinase B” (Imperial College Innovations Ltd., priority 2003, published 2008)
Like-named read-outs stand apart in the source and are kept apart here.

Tests used:
[1] = test system: PKB Ser473 phosphorylation; assay: PKB Ser473 activation synergy experiments (Western blot, NIH3T3 cells primed with NCS); format: cell-based; conditions: for phosphorylation of PKB (Western blot 1, FIG. 1): NIH3T3 cells, 1% NCS 20 minutes then compound 15 minutes
From the text: PKB is a protein downsteam effector of PI3K, and becomes phosphorylated on (residues required for its activity) in response to the activation of PI3K. Natal Calf Serum (NCS) is a stimulator of PI3K and thus subsequently results in PKB activation. Therefore the positive control used in experiments is 10% serum and a negative control used is provided with no serum at all.
Compound 48/80 is the condensation product of N-methyl-p-methoxyphenethylamine and formaldehyde and is a mixture of cationic amphiphiles of varying degrees of polymerisation.
In a typical method, NIH3T3 cells were grown in media (GibcoBRL) containing 10% NCS to near confluency in six well plates. The cells were starved using 0.5% serum for 2-3 days. The media was then removed and replaced with serum free media for 15 minutes. Subsequently, 1% NCS was added to reaction wells, and 0%, 1% and 10% NCS to control wells. After 20 minutes incubation, then compound was added, and the wells incubated for a further 15 minutes. Media was removed and sample buffer was added and the cells lysed, boiled, centrifuged.
Samples were subjected to gel electrophoresis by 10% SDS-PAGE and then Western blotted on to PVDF membrane (Biorad) according to standard protocols. Western blots were probed using primary antibodies against PKB purchased from New England Biolabs and secondary antibodies of goat anti-rabbit IgG coupled to horseradish peroxidase (Amersham). The membranes were then developed using a freshly prepared ECL solution according to standard protocols.

[2] = Dilution of compounds into water (observed solubility)
From the text: The monomer, dimer and trimer of compound 48/80 were received as synthesised from Macba Numbere at UCL.

[3] = diluted into water initially, afterwards into DMSO

| Compound | overall effect on PKB (conclusion from these studies) [1] | PKB Ser473 phosphorylation (Western blot 3) ([1]; 5 μg/mL experiment, controls contain DMSO at 2.5%) | solubility on dilution into water [2, 3] | phosphorylation of PKB (Western blot 1, FIG. 1) ([1]; 3 μg/mL) | phosphorylation of PKB (Western blot 1, FIG. 1) ([1]; 6 μg/mL) | solubility on dilution into water [2] |
| --- | --- | --- | --- | --- | --- | --- |
| CNCCc1ccc(OC)cc1 [monomer, N-methyl-p-methoxyphenethylamine] | activating species | slight activation above control levels | solubility problems |  |  |  |
| CNCCc1ccc(OC)c(Cc2cc(CCNC)cc(Cc3cc(CCNC)ccc3OC)c2OC)c1.Cl.Cl.Cl [trimer] | inhibiting species |  |  | just below that of 1% serum activation | almost completely inhibited | solubility problems |
| Benzeneethanamine-3,3′-methylenebis(4-methoxy-N-methyl) dihydrochloride [dimer] |  |  | solubility problems |  |  |  |
